Experiments:
Assay in all cases: relative viability (nuclei count vs DMSO), 5 days (fraction); higher = more cells survive
Vemurafenib + Trametinib = compound: CCCS(=O)(=O)Nc1ccc(F)c(C(=O)c2c[nH]c3ncc(-c4ccc(Cl)cc4)cc23)c1F [Vemurafenib] + CC(=O)Nc1cccc(-n2c(=O)n(C3CC3)c(=O)c3c(Nc4ccc(I)cc4F)n(C)c(=O)c(C)c32)c1 [Trametinib] (partner 0.02 µM)
How it was run: (§1)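 Lung cancer cell lines in 1536-well plates got either a single drug or a fixed anchor-drug dose together with five library-drug doses (not always all listed) in √10 steps, by pin tool, on the day after seeding. Nuclei were counted after 5 days, and relative viability is the treated-to-vehicle ratio of nuclei counts. Values are medians of duplicate plates.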

OSI-027 + Lapatinib = compound: COc1cccc2cc(-c3nc([C@H]4CC[C@H](C(=O)O)CC4)n4ncnc(N)c34)[nH]c12 [OSI-027] + CS(=O)(=O)CCNCc1ccc(-c2ccc3ncnc(Nc4ccc(OCc5cccc(F)c5)c(Cl)c4)c3c2)o1 [Lapatinib] (partner 2 µM)
How it was run: as §1

Alpelisib + Navitoclax = compound: Cc1nc(NC(=O)N2CCC[C@H]2C(N)=O)sc1-c1ccnc(C(C)(C)C(F)(F)F)c1 [Alpelisib] + CC1(C)CCC(c2ccc(Cl)cc2)=C(CN2CCN(c3ccc(C(=O)NS(=O)(=O)c4ccc(N[C@H](CCN5CCOCC5)CSc5ccccc5)c(S(=O)(=O)C(F)(F)F)c4)cc3)CC2)C1 [Navitoclax] (partner 0.5 µM)
How it was run: as §1

Alpelisib + Phenformin = compound: Cc1nc(NC(=O)N2CCC[C@H]2C(N)=O)sc1-c1ccnc(C(C)(C)C(F)(F)F)c1 [Alpelisib] + N=C(N)NC(=N)NCCc1ccccc1 [Phenformin] (partner 250 µM)
How it was run: as §1

Cell Line	relative viability (Vemurafenib + Trametinib; first compound 0.03162 µM)	relative viability (Vemurafenib + Trametinib; first compound 0.1 µM)	relative viability (Vemurafenib + Trametinib; first compound 0.3162 µM)	relative viability (Vemurafenib + Trametinib; first compound 1 µM)	relative viability (OSI-027 + Lapatinib; first compound 0.01 µM)	relative viability (OSI-027 + Lapatinib; first compound 0.03162 µM)	relative viability (OSI-027 + Lapatinib; first compound 0.1 µM)	relative viability (OSI-027 + Lapatinib; first compound 0.3162 µM)	relative viability (OSI-027 + Lapatinib; first compound 1 µM)	relative viability (Alpelisib + Navitoclax; first compound 0.04 µM)	relative viability (Alpelisib + Navitoclax; first compound 0.1265 µM)	relative viability (Alpelisib + Navitoclax; first compound 0.4 µM)	relative viability (Alpelisib + Navitoclax; first compound 1.265 µM)	relative viability (Alpelisib + Navitoclax; first compound 4 µM)	relative viability (Alpelisib + Phenformin; first compound 0.04 µM)	relative viability (Alpelisib + Phenformin; first compound 0.1265 µM)	relative viability (Alpelisib + Phenformin; first compound 0.4 µM)	relative viability (Alpelisib + Phenformin; first compound 1.265 µM)	relative viability (Alpelisib + Phenformin; first compound 4 µM)
HCC-15	0.373	0.363	0.43	0.429	0.872	0.849	0.819	0.763	0.529	0.627	0.7	0.74	0.598	0.454	0.5	0.434	0.45	0.372	0.274
HCC-44	1.01	1	1.02	1.14	1.05	0.975	0.93	0.85	0.444	0.949	0.983	1.04	0.802	0.735	0.248	0.174	0.187	0.141	0.161
HCC-78	0.783	0.609	1.06	0.838	0.6	0.77	0.472	0.787	0.518	0.745	0.609	0.738	0.373	0.518	0.708	0.54	0.708	0.471	0.428
HCC-366	0.346	0.193	–	0.376	1.25	1.1	1.16	0.764	0.148	1.02	1.08	1.05	0.681	0.334	0.639	0.608	0.636	0.428	0.139
HCC-827	0.52	–	0.73	0.585	0.151	0.173	0.205	0.185	0.176	1	1.02	1.06	1.01	0.908	0.424	0.419	0.338	0.371	0.303
HOP-62	0.419	0.36	0.416	0.594	1.1	1.09	0.848	0.849	0.855	1	0.893	1.12	0.606	1.06	0.642	0.611	0.761	0.561	0.633
IA-LM	–	–	–	–	0.765	0.697	0.499	0.193	0.223	0.894	0.727	0.736	0.628	0.718	–	–	–	–	–
LCLC-103H	0.668	0.619	0.685	0.768	–	–	–	–	–	–	–	–	–	–	0.344	0.347	0.311	0.245	0.272
NCI-H358	0.155	0.119	0.15	0.175	0.444	0.475	0.394	0.389	0.309	–	–	–	–	–	0.309	0.321	0.338	0.242	0.16
NCI-H441	0.434	0.431	0.611	0.472	–	–	–	–	–	0.571	0.434	0.8	0.43	0.552	0.955	0.749	0.832	0.469	0.45
NCI-H522	0.695	0.63	0.786	0.783	–	–	–	–	–	–	–	–	–	–	0.573	0.601	0.782	0.5	0.582
NCI-H650	1.05	0.944	0.808	1.09	0.838	0.883	0.516	0.707	0.39	–	–	–	–	–	0.469	0.429	0.534	0.349	0.369
NCI-H661	0.522	0.475	0.517	0.606	0.509	0.519	0.453	0.334	0.279	–	–	–	–	–	0.285	0.281	0.253	0.245	0.262
NCI-H1299	–	–	–	–	1.02	1.04	1.04	1.01	0.645	1.05	1.05	1.07	1.01	1.02	–	–	–	–	–
NCI-H1563	–	–	–	–	0.846	1.05	0.745	0.757	0.775	–	–	–	–	–	0.637	0.698	0.64	0.604	0.589
NCI-H1623	–	–	–	–	–	–	–	–	–	–	–	–	–	–	0.548	0.545	0.516	0.532	0.426
NCI-H1648	–	0.326	0.569	0.58	–	–	–	–	–	–	–	–	–	–	–	–	–	–	–
NCI-H1703	–	–	–	–	1.33	1.1	0.889	0.736	0.365	1.01	0.994	0.71	0.565	0.464	–	–	–	–	–
NCI-H2342	0.921	0.747	0.978	0.769	–	–	–	–	–	–	–	–	–	–	0.606	0.587	0.559	0.519	0.439
SW 900	0.939	0.593	0.778	0.868	–	–	–	–	–	–	–	–	–	–	0.561	0.525	0.449	0.474	0.347
